The values that follow come from patent publication US20070275935A1, “Estratriene Derivatives” (priority 2003, published 2007).

For assay [1], the system named is GM-CSF production by Human Airway Smooth Muscle Cells. In words: Interleukin-1α-mediated GM-CSF production by HASM cells (ELISA). Format: cell-based. The note with it: inhibition of interleukin-1α (1 ng/ml)-mediated GM-CSF production; concentration not given; * not defined. (In general: In an ELISA, binding on a coated surface is turned into a signal by an enzyme label.)

The subject of assay [2] is type II airway epithelial cell line, A549. In words: Proliferation of A549 cells in response to 5% FCS. Format: cell-based, human. To be noted: Homo sapiens, A549; proliferation in response to 5% FCS; pIC50 of 4.00 = inactive; read-out: A549 PIC50 (converted). Here is the method:
The effects of 4NO were evaluated in a number of non-smooth muscle cell types including the type II airway epithelial cell line, A549 (ATCC accession number ATCC CCL-185 Lung carcinoma human) (FIG. 2); the human breast tumour cell line, MCF7, (ATTC accession number ATCC HTB-22 breast adenocarcinoma, human) which expresses the estrogen receptor (FIG. 3); and in bovine aortic endothelial cells (BAEC) (FIG. 4).
The effects of test compounds were examined on proliferation of A549 cells in response to 5% fetal calf serum (FCS). Analogues were pre-incubated with A549 cells for 30 min before the addition of FCS. The incubation continued for 48 h before cell enumeration. Data are expressed as a percentage of the cell number in vehicle treated wells and are presented as the mean and standard error of the mean. Similarly the effects of 2MEO and 4NO on proliferation of MCF7 in response to 5% FCS or epidermal growth factor (EGF, 300 pM) were examined, as were the effects of 2MEO and 4NO on proliferation of BAEC in response to 5% FCS. The incubation parameters were the same as described above and results are presented as the mean and standard error of the mean.
This assay was also used to evaluate the ability of other compounds to inhibit the proliferation of non-smooth muscle cells MCF7 and A549 (described above) in response to 5% FCS. The results of this assay are presented in Table 4 (columns G and H respectively). The potency of the compounds was considerably less in inhibiting proliferation of these cell lines than it was for HASM. These observations support the contention that there are cell type-specific targets for the actions of these compounds. Such assays may also be adopted to examine the effect of other disclosed compounds on these cells or on other non-smooth muscle cells of interest.

Assay [3] relates to Human airway smooth muscle (HASM) cells. Kind of assay: Thrombin-induced proliferation of human airway smooth muscle (HASM) cells, cell number after 48 h. Format: cell-based. The note with it: for IC50: Homo sapiens, negative log of the concentration that reduces the thrombin-induced proliferative response by 50%, pIC50 of 4.00 = inactive, read-out: HASM-Thr pIC50 (converted); for HASM- Thr pIC25 / HASM- Thr pIC75: two site model, thrombin-induced proliferation; for HASM- Thr pIC25: first phase (inhibition up to 50%); for HASM- Thr pIC75: second phase (inhibition up to 100%). How it is done:
Human airway smooth muscle (HASM) cells were cultured from macroscopically normal bronchi (0.5-2 cm diameter) obtained from lung resection or heart-lung transplant specimens provided by the Alfred Hospital (Melbourne) according to methods published in detail previously (Fernandes et al., 1999).
Approximately 0.1 g of smooth muscle was stripped from the wall of the bronchus for each cell culture. Dissected tissue was immersed in Dulbecco's modified Eagle's medium (DMEM) (Flow Laboratories, Scotland), supplemented with 100 U/mL penicillin G (CSL, Australia) and 100 ug/mL streptomycin (CSL, Australia). The tissue was rinsed in phosphate buffered saline (PBS; Oxoid, England) and the airway smooth muscle was chopped into 2 mm^3 pieces and digested for 2 hours in DMEM containing elastase (0.5 mg/mL: Worthington Biochemical, USA) followed by a 12 hour incubation in DMEM containing collagenase (1 mg/mL) (Worthington Biochemical, USA), at 37° C. with agitation.
The resulting cell suspension was centrifuged and washed three times in phosphate buffered saline (PBS). Following the last centrifugation step, the cells were resuspended in 25 mL of DMEM supplemented with L-glutamine (2 mM: Sigma, USA), penicillin G (100 U/mL), streptomycin (100 μg/mL), amphotericin B (2 μg/mL: Wellcome, UK) and heat-inactivated FCS (10% v/v: CSL, Australia) and seeded into 25 cm^2 culture flasks. The primary isolates were incubated for 7 to 14 days to reach confluence.
Cells were harvested weekly by 10 min exposure to trypsin (0.5%: CSL, Australia) and EDTA (1 mM in PBS: BDH, Australia) and passaged at a 1:3 ratio into 75 cm^2 flasks.
The activity of the compounds has been established in cell culture by exploring their effects on mitogen-induced increases in cell number. We investigated the effects of 2MEO and its analogues, 4NO and 4NOM, on the proliferation of HASM cells in response to the proliferative stimulus of either thrombin of basic fibroblast growth factor (bFGF). Cells were seeded onto 6-well plates at a density of 1.5×10^4 cells cm^2, made quiescent by removal of serum-containing media for 24 hours and then stimulated for 48 h with either thrombin (0.3 U/ml) or bFGF (300 pM). The test compounds were pre-incubated with HASM cells for 30 minutes before the addition of thrombin. At the end of the 48 hour incubation period, cells were detached from the culture plate by trypsin (0.5% w/v in PBS containing 1 mM EDTA), incubated for 5 minutes at ambient temperature in PBS containing 0.5% (w/v) trypan blue, washed twice (2% FCS in PBS), isolated by centrifugation (12,000×g, 5 min) and resuspended in 200 μl 2% FCS in PBS for counting in a haemocytometer chamber.
Data are expressed as a percentage of the cell number in vehicle treated wells and are presented as the mean and standard error of the mean.
The potency of the compounds in regulating thrombin-induced proliferation of human airway smooth muscle (HASM) was assessed in cells maintained in culture as described above. The potencies are presented as pIC50 values (Column A of Table 4) denoting the negative log of the concentration that reduces the proliferative response by 50%. […] When the single phase model was determined to be more appropriate, the values of pIC25 and pIC75 were not calculated or shown in the table.

The target of assay [4] is T1, Estrogen Receptor (ER) (Rattus norvegicus, UniProt P06211).
T1 construct: using rat uterine cytosol as a source of ER; from tissue; host or cells: rat uterus, cytosol fraction (30000 x g supernatant)
T1 sequence (P06211 1-600): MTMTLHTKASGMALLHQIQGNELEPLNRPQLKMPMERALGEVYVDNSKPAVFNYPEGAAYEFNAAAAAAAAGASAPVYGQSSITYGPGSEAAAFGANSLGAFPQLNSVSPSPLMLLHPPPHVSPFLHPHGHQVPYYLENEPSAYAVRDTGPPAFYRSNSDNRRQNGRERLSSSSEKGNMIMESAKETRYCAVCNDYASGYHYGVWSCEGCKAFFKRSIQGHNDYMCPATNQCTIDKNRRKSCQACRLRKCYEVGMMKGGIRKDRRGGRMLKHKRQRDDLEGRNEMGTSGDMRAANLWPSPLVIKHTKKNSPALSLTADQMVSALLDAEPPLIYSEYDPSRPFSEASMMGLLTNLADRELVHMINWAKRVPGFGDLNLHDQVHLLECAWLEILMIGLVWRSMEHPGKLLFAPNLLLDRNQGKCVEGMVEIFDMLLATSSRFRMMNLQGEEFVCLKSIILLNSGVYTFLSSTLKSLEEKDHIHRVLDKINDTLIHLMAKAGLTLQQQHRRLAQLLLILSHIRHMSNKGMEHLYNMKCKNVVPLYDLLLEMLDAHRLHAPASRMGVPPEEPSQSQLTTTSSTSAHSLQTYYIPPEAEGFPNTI
Kind of assay: Estrogen receptor binding assay, 3H-estradiol displacement from rat uterine cytosol. To be noted: 3H-estradiol displacement, cytosolic preparations of rat uterus; pIC50 of 4.00 = inactive; read-out: ER-RLB pIC50 (converted). Here is the method:
Uteri (6-10 per batch) were isolated from Brown Norway rats (250-350g), washed free from blood in saline and homogenised in 10 mM Tris buffer (pH 7.4, 1.5 mM EDTA, 10% w/v glycerol, 1 mM phenylmethylsulfonylfluoride) using an Ultra Turrax homogeniser for 3 by 15 s bursts with intervals of 1 min on ice.
Nuclear material and cellular debris were removed by centrifugation at 750×g at 4° C. for 10 min (Sorvall RT7); the cytosol component was prepared by centrifugation at 30000×g for 120 min at 4° C. in a Beckman JM1 centrifuge. The cytosol was diluted to approximately 1 mg/ml protein (rat uterine extract) determined using the Bradford method (Biorad).
Separation of bound from free radioligand was achieved by the addition of 500 μL of dextran-coated charcoal (400 mg dextran clinical grade C and 2g of charcoal, Norit A in 100 mL of Tris buffer) and centrifugation at 4° C. in a Sorval RT7 at 2000×g for 10 min.

As to `COc1cc2c(cc1O)CC[C@@H]1[C@@H]2CC[C@]2(C)/C(=N/OCc3ccc([N+](=O)[O-])cc3)CC[C@@H]12` [CP-DM-3-103, 2-methoxyestrone-17-(4-nitrobenzyl)oxime], the “HASM - GM-CSF” value in assay [1] was “either did not inhibit or produced less inhibition”. Moreover, the IC50 in assay [2] was 40.7 µM; in assay [3], 3.16 µM.
In the case of `COc1cc2c(cc1O)/C(=N/OCc1cccc([N+](=O)[O-])c1)C[C@@H]1[C@@H]2CC[C@]2(C)/C(=N/O)CC[C@@H]12` [CP-DM-3-105, 2-methoxy-6-(3-nitrobenzyloxy)iminoestrone-17-oxime], the IC50 in assay [4] was 25.1 µM. In addition, the IC50 in assay [2] was 5.13 µM. Further, in assay [3], the IC50 is 0.1 µM, the “HASM- Thr pIC25” value was 8.85 and the “HASM- Thr pIC75” value turned out to be 5.59.
Consider `COc1cc2c(cc1O)/C(=N/OCc1cccc([N+](=O)[O-])c1)C[C@@H]1[C@@H]2CC[C@]2(C)[C@@H](O)CC[C@@H]12` [CP-DM-3-106, 2-methoxy-6-(3-nitrobenzyloxy)iminoestradiol], for which, in assay [4], the IC50 was 0.178 µM. Further, in assay [2], the IC50 was 7.59 µM. Also, in assay [3], the IC50 is 0.0251 µM, the “HASM- Thr pIC25” value is reported as 9.35 and the “HASM- Thr pIC75” value is 6.36.
On to `COc1cc2c(cc1O)/C(=N/OCc1ccccc1[N+](=O)[O-])C[C@@H]1[C@@H]2CC[C@]2(C)/C(=N/O)CC[C@@H]12` [CP-DM-3-117, 2-methoxy-6-(2-nitrobenzyloxy)iminoestrone-17-oxime], for which the IC50 in assay [2] was 5.13 µM; in assay [3], 6.46 µM.
In the case of `COc1ccc(CO/N=C2\C[C@@H]3[C@H](CC[C@]4(C)[C@@H](O)CC[C@@H]34)c3cc(OC)c(O)cc32)cc1` [CP-DM-4-5, 2-methoxy-6-(4-methoxybenzyloxy)-iminoestradiol], the IC50 in assay [4] was 0.794 µM. For the same compound, the IC50 in assay [2] was 5.01 µM. Besides, in assay [3], the IC50 was 0.135 µM, the “HASM- Thr pIC25” value is reported as 10.46 and the “HASM- Thr pIC75” value was found to be 5.27.
In the same order, the values of `COc1cc2c(cc1O)/C(=N/OCc1cc(F)cc(F)c1)C[C@@H]1[C@@H]2CC[C@]2(C)/C(=N/O)CC[C@@H]12` [CP-DM-4-36, 6-(3,5-difluorobenzyloxy)imino-2-methoxyestrone-17-oxime] are 20 µM, 10 µM, 0.129 µM, 7.91 and 5.69.
For the compound `COc1cc2c(cc1O)/C(=N/OCc1ccc(OC(F)(F)F)cc1)C[C@@H]1[C@@H]2CC[C@]2(C)/C(=N/O)CC[C@@H]12` [CP-DM-4-68, 2-methoxy-6-(4-trifluoromethoxybenzyloxy)iminoestrone-17-oxime], the “HASM - GM-CSF” value in assay [1] came out at 8 ± 13. For the same compound, in assay [3], the IC50 is 1.82 µM, the “HASM- Thr pIC25” value worked out at 7.91 and the “HASM- Thr pIC75” value worked out at 5.00.
Consider `COc1cc2c(cc1O)/C(=N/OCc1ccc(C(C)C)cc1)C[C@@H]1[C@@H]2CC[C@]2(C)/C(=N/O)CC[C@@H]12` [CP-DM-4-77, 2-methoxy-6-(4-isopropylbenzyloxy)iminoestrone-17-oxime], for which the “HASM - GM-CSF” value in assay [1] is on record as 26 ± 13. In addition, the IC50 in assay [2] was 3.16 µM; in assay [3] it was 3.02 µM.
Take `COc1cc2c(cc1O)/C(=N/OCc1ccc(C)cc1)C[C@@H]1[C@@H]2CC[C@]2(C)[C@@H](O)CC[C@@H]12` [CP-DM-4-78, 2-methoxy-6-(4-methylbenzyloxy)iminoestradiol]: the IC50 in assay [4] is 0.229 µM; in assay [2], 10 µM; in assay [3], 1 µM. For the same compound, in assay [1], the “HASM - GM-CSF” value is 35 ± 9*.
Regarding `COc1cc2c(cc1O)/C(=N/OCc1ccc([N+](=O)[O-])cc1)C[C@@H]1[C@@H]2CC[C@]2(C)[C@@H](OC(C)=O)CC[C@@H]12` [CP-DM-4-91, 2-Methoxy-6-(4-nitrobenzyloxy)iminoestradiol-17-acetate], the IC50 in assay [2] was 10 µM; in assay [3], 6.31 µM.
